The numbers were not newly measured in patent publication US20080187998A1, “Sulfonamide-based oligomers and polymers for destabilization of biological membranes” (UNIVERSITY OF UTAH RESEARCH FOUNDATION, priority 2007, published 2008), which cites them from elsewhere.

For this series the following is noted: monomeric sulfonamide.
One may read the pKa as the pH at which an ionisable group is half protonated. Regarding `COc1cc(NS(=O)(=O)c2ccc(N)cc2)nc(OC)n1` [SDM, sulfadimethoxine], the pKa was 6.1. On to `Cc1ccnc(NS(=O)(=O)c2ccc(N)cc2)n1` [sulfamerazine], for which the pKa is 7.0. Take `Cc1nnc(NS(=O)(=O)c2ccc(N)cc2)s1` [SMT, sulfamethizole]: the pKa is 5.45. For `Nc1ccc(S(=O)(=O)Nc2ncccn2)cc1` [SDZ, sulfadiazine], the pKa is on record as 6.4-6.5.
